Test results reported in patent publication US6673791B2, “Non-nucleoside reverse transcriptase inhibitors” (Boehringer Ingelheim (Canada) Ltd., priority 2001, dated 2004).

How the values were obtained:
[1] = system: V106A (HIV-1 mutant strain); test: EC50 assay, V106A strain; format: cell-based; details: Human immunodeficiency virus 1, read-out: EC50 V106A (nM)
From the text: (§1) Reverse TranscriptASE (RT) Assays
(§2) The assays are as described in WO 01/96338A1, the contents of which are hereby incorporated herein. The results are listed in Tables 8 as IC50(nM) and EC50(nM).

[2] = molecular target: T1, WT RT (HIV-1 RT) (Human immunodeficiency virus type 1 group M subtype B, UniProt P03366); test: biochemical
T1 construct: mutations that occur in the reverse transcriptase segment of the pol gene

[3] = molecular target: T2, V106A mutant RT (HIV-1 RT) (Human immunodeficiency virus type 1 group M subtype B, UniProt P03366, V705A); test: biochemical; details: IC50 V106A (nM)
T2 construct: mutations that occur in the reverse transcriptase segment of the pol gene

[4] = molecular target: T3, K103N/Y181C double mutant RT (HIV-1 RT) (Human immunodeficiency virus type 1 group M subtype B, UniProt P03366, K702N/Y780C); test: biochemical
T3 construct: mutations that occur in the reverse transcriptase segment of the pol gene

[5] = molecular target: T4, Y188L mutant RT (HIV-1 RT) (Human immunodeficiency virus type 1 group M subtype B, UniProt P03366, Y787L); test: biochemical; details: IC50 Y188L (nM)
T4 construct: mutations that occur in the reverse transcriptase segment of the pol gene

[6] = system: K103N/Y181C (HIV-1 double mutant strain); test: EC50 assay, K103N/Y181C strain; format: cell-based; details: Human immunodeficiency virus 1, read-out: EC50 K103N/Y181C (nM), K103N/Y181C double mutant
From the text: as §1, §2

[7] = system: WT RT (HIV-1 wild type strain); test: EC50 assay, WT RT strain; format: cell-based; details: Human immunodeficiency virus 1, read-out: EC50 WT RT (nM)
From the text: as §1, §2

Row | SMILES | EC50 [1] | IC50 [2] | IC50 [3] | IC50 [4] | IC50 [5] | EC50 [6] | EC50 [7]
1 | CCN1c2ncc(CCOc3ccc(NS(=O)(=O)C(F)(F)F)c4ccccc34)cc2C(=O)N(C)c2ccc(F)nc21 [Entry 2002] | 100 to 1000 nM | < 100 nM | > 1000 nM | 100 to 1000 nM | > 1000 nM | < 100 nM | < 100 nM
2 | CCN1c2ncc(CCOc3ccc(C(=O)O)c4c3CCCC4)cc2C(=O)N(C)c2cccnc21 [Entry 5001] | 100 to 1000 nM | < 100 nM | > 1000 nM | 100 to 1000 nM | > 1000 nM | < 100 nM | < 100 nM
3 | CCN1c2ncc(CCOc3ccc(CCC(=O)O)c4c3CCCC4)cc2C(=O)N(C)c2ccc(Cl)nc21 [Entry 5010] | – | < 100 nM | > 1000 nM | 100 to 1000 nM | 100 to 1000 nM | < 100 nM | < 100 nM
4 | CCN1c2ncc(CCOc3ccc(C(=O)O)c4c3CCN(C(=O)OC)C4)cc2C(=O)N(C)c2cccnc21 [Entry 7002] | 100 to 1000 nM | < 100 nM | > 1000 nM | 100 to 1000 nM | 100 to 1000 nM | < 100 nM | < 100 nM
5 | CCN1c2ncc(CCOc3ccc(C(=O)O)c4c3CCN(C(=O)OC(C)(C)C)C4)cc2C(=O)N(C)c2cccnc21 [Entry 7003] | – | < 100 nM | > 1000 nM | 100 to 1000 nM | 100 to 1000 nM | < 100 nM | < 100 nM
6 | CCNC(=O)N1CCc2c(OCCc3cnc4c(c3)C(=O)N(C)c3cccnc3N4CC)ccc(C(=O)O)c2C1 [Entry 7006] | – | < 100 nM | 100 to 1000 nM | 100 to 1000 nM | > 1000 nM | > 1000 nM | 100 to 1000 nM
7 | CCN1c2ncc(CCOc3ccc(C(=O)O)c4c3CCN(C(=O)N(C)C)C4)cc2C(=O)N(C)c2cccnc21 [Entry 7007] | – | < 100 nM | 100 to 1000 nM | < 100 nM | 100 to 1000 nM | < 100 nM | < 100 nM
8 | CCN1c2ncc(CCOc3ccc(C(=O)O)c4c3CCN(S(=O)(=O)N(C)C)C4)cc2C(=O)N(C)c2cccnc21 [Entry 7008] | – | < 100 nM | 100 to 1000 nM | < 100 nM | 100 to 1000 nM | < 100 nM | < 100 nM
